Key:
[1] = tested on: Brachiaria plantaginea; test: Glasshouse trial, control of Brachiaria, pre-emergence test; format: in vivo; details: TXP (where applied) 200 g ai/ha, 20 DAA
Experimental: (§1) A glasshouse trial was carried out to test the activity of mesotrione or the compound of formula I (each at 3 different rates) in combination with trinexapac-ethyl at 200 gai/ha against Brachiaria plantaginea. Brachiaria seeds were sown in standard potting mix in 50 cm plastic troughs. The adjuvant system was X-77 at 0.1% v/v in deionised water. 500 liters of herbicide/adjuvant system was used per hectare. General weed control was evaluated at 15 days after application (DAA) for the post-emergence test and 20DAA for the pre-emergence test. It is noted that all herbicides were applied at reduced field rates because herbicide effects are magnified in a glasshouse environment. Rates were chosen to give a 50 to 70% level of control with herbicides applied alone as this allows for detection of any synergistic effect when tank mixtures are used.

[2] = tested on: Brachiaria plantaginea; test: Glasshouse trial, control of Brachiaria, post-emergence test; format: in vivo; details: TXP (where applied) 200 g ai/ha, 15 DAA
Experimental: as §1

| SMILES | % Control at different herbicide rates ([1]; herbicide rate 30 g ai/ha) | % Control at different herbicide rates ([1]; herbicide rate 60 g ai/ha) | % Control at different herbicide rates ([1]; herbicide rate 125 g ai/ha) | % Control at different herbicide rates ([2]; herbicide rate 30 g ai/ha) | % Control at different herbicide rates ([2]; herbicide rate 60 g ai/ha) | % Control at different herbicide rates ([2]; herbicide rate 125 g ai/ha) |
| --- | --- | --- | --- | --- | --- | --- |
| CCOC(=O)C1CC(=O)C(=C(O)C2CC2)C(=O)C1 (stereo not drawn) [TXP, trinexapac-ethyl] | 0% | 0% | 0% | 0% | 0% | 0% |
| COCCOCc1nc(C(F)(F)F)ccc1C(=O)C1=C(O)C2CCC(C2)C1=O (stereo not drawn) [Formula I] | 30% | 80% | 90% | 60% | 70% | 80% |
| CS(=O)(=O)c1ccc(C(=O)C2C(=O)CCCC2=O)c([N+](=O)[O-])c1 [Mesotrione, mesotrione] | 30% | 50% | 80% | 30% | 70% | 70% |

Reference: patent publication US9480252B2, “Herbicidal compositions” (Syngenta Crop Protection LLC, priority 2007, dated 2016)
